Assay results taken from ChEMBL document CHEMBL1201862, “PubChem BioAssay data set” (2004).
Active and inactive are the calls of the source.

Legend:
[1] = system: Streptococcus sp. 'group A'; experiment: growth inhibition of control SK(-) GAS strain, dose response, counter-screen for streptokinase expression inhibitor project, luminescence, kanamycin, BacTiterGlo, confirmation (AID 1900); format: functional, organism-based
cells [2] = format: functional, cell-based
[3] = biological target: Serine/threonine-protein phosphatase PP1-alpha catalytic subunit (Homo sapiens, UniProt P62136); experiment: PP1 phosphatase inhibitors, dose response, biochemical, fluorescence (AID 2403);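 further: phosphatase turnover of OMFP into fluorescent 3-O-methylfluorescein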
[4] = inhibitors of intracellular T. cruzi replication, confirmation, NIH3T3 host cells, beta-gal luminescence (AID 2044); format: functional, cell-based;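 further: intracellular parasites grown in NIH/3T3 mouse fibroblasts as host cells; luminescent beta-galactosidase reporter signal from transgenic T. cruzi replicating inside host cells; inhibitors lower the luminescence signal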
cells [5] = format: functional, cell-based; remark: listed apart in the source
[6] = biological target: Serine/threonine-protein phosphatase (Homo sapiens, UniProt Q9BPW0); experiment: Counterscreen for inhibitors of PP1: fluorescence-based biochemical high throughput dose response assay to identify inhibitors of Protein Phosphatase 5 (PP5). [Related pubchem assays: 2034 (Summary (PP5 inhibitors)), 1987 (PP5 inhibitors in singlate), 2235 (PP1 inhibitors in singlate)]
[7] = cytotoxicity toward NIH3T3 fibroblasts, dose response, counter-screen, cell-based, ATP luminescence, mouse fibroblasts (AID 2010); format: functional;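 further: cells exposed to compound for about 90 hours before reading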
Streptococcus = experiment: Group A Streptococcus viability loss, dose response, counter-screen for streptokinase expression inhibitor project, luminescence, BacTiterGlo (AID 1915); format: functional, organism-based;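 further: potency for reduction of bacterial viability or growth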
Nonstructural protein 1 = Nonstructural protein 1 (Influenza A virus, UniProt Q194T2); format: functional, Influenza A virus (A/California/07/2009(H1N1))
INS1 = experiment: beta cell apoptosis inhibitors, cytokine rescue, dose response, luminescence, retest (AID 449756); format: functional, cell-based; conditions: Rattus norvegicus;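 further: cell death triggered by IL-1 beta plus TNF-alpha plus IFN-gamma mixture; protective hits raise ATP signal compared with cytokine alone wells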
[8] = biological target: Photoreceptor-specific nuclear receptor (Homo sapiens, UniProt Q9Y5X4); format: functional, cell-based;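 further: CHO-S cells with Gal4-NCOR and VP16-NR2E3 two-hybrid luciferase reporter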
[9] = HeLa cell cytotoxicity, dose response, cytotoxicity control, CellTiter-Glo luminescence, dry powder, set 2 (AID 720593); format: functional, cell-based
Large T antigen = Large T antigen (Simian virus 40, UniProt P03070); format: functional, Betapolyomavirus macacae;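 further: Confirmatory-stage PubChem screen for compounds that inhibit SV40 T antigen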
[10] = HepG2 cell cytotoxicity, dose response, cytotoxicity control, ATP luminescence, cherry-pick, set 6 (AID 1053125); format: functional, cell-based
cells [11] = conditions: A549
cells [12] = conditions: HEK293
Caspase-6 = Caspase-6 (Homo sapiens, UniProt P55212); experiment: human caspase-6 inhibitors, dose response, biochemical, VEID-R110 fluorescence, cherry-pick (AID 720632)
cells [13] = experiment: cells
[14] = Artemis endonuclease inhibitor potency, dose response, biochemical, fluorescence intensity (AID 720701); format: functional;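 further: Artemis endonuclease enzyme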
Protein Tat = biological target: T1, Protein Tat (Human immunodeficiency virus type 1 group M subtype B (isolate HXB2)(HIV-1), UniProt P04608); format: functional;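 further: tat binding to TAR RNA read out by fluorescence polarization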
T1 sequence (P04608 whole entry): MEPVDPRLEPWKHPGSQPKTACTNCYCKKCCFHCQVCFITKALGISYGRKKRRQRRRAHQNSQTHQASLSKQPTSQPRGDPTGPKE

[15] = inhibitors of Vif binding to APOBEC3G peptide, primary screen, biochemical, TR-FRET, GST-Vif 1-94, biotin-A3G peptide, dose response retest (AID 1117319); format: functional;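 further: TR-FRET signal of purified GST-Vif binding a biotinylated A3G peptide; inhibitors lower the FRET signal by blocking Vif and A3G binding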
[16] = Vero cell cytotoxicity, dose response, cytotoxicity control for Vif-APOBEC3G degradation inhibitor project, Vero cells (AID 1117358); format: functional; conditions: Human immunodeficiency virus 1, Vero
[17] = biological target: RNA-editing ligase 1, mitochondrial (Trypanosoma brucei brucei, UniProt P86926); experiment: TbREL1 ligase inhibitors, dose response, biochemical, fluorescence, Trypanosoma brucei (AID 1117295); format: functional
[18] = biological target: T2, Methionyl-tRNA synthetase, putative (Trypanosoma brucei brucei, UniProt Q38C91); format: functional, Trypanosoma brucei brucei strain 927/4 GUTat10.1
T2 sequence (Q38C91 whole entry): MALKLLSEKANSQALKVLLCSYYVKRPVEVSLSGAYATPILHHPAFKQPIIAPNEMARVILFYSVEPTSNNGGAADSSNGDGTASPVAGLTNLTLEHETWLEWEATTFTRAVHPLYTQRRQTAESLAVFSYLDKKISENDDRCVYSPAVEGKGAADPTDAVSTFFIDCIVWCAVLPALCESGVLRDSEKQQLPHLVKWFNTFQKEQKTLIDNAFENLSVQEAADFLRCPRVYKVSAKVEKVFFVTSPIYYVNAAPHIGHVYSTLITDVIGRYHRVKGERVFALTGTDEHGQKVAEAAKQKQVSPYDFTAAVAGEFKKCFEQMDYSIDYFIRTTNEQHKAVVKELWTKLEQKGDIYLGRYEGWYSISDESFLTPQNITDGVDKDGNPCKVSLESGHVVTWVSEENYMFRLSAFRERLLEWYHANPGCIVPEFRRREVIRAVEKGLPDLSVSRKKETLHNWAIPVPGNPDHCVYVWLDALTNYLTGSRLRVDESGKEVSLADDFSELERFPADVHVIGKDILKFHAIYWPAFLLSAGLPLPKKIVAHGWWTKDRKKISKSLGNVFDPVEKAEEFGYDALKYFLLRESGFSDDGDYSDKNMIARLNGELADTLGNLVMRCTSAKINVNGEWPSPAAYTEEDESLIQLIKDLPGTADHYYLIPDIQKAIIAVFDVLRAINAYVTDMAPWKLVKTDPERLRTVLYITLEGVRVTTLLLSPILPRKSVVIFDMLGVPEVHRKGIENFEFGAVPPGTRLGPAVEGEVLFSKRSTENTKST

[19] = Counterscreen for inhibitors of Trypanosoma brucei methionyl tRNA synthetase (MetRS): Luminescence-based cell-based high throughput dose response assay to identify compounds that are cytotoxic to Jurkat human T lymphocyte cells.; format: functional
[20] = biological target: T2, Methionyl-tRNA synthetase, putative; format: functional, Trypanosoma brucei brucei strain 927/4 GUTat10.1; remark: listed apart in the source
[21] = Late stage counterscreen for inhibitors of Trypanosoma brucei methionyl tRNA synthetase (MetRS): Luminescence-based cell-based high throughput dose response assay to identify compounds that are cytotoxic to Jurkat human T lymphocyte cells.; format: functional
[22] = miR-122 activators in hepatoma reporter cells, dose response, cell-based, Huh7 psiCHECK-miR122, Renilla luciferase, cherry-picked (AID 651956); format: functional;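 further: huh7 hepatoma cells stably carrying a psiCHECK-2 miR-122 sensor plasmid; renilla luciferase signal reporting endogenous miR-122 activity after 48 h compound exposure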
[23] = HEK293T cytotoxicity, dose response, cytotoxicity control for miR-122 modulator project, cell-based, inhibitor set, cherry-pick, set 2 (AID 720697); format: functional
[24] = HEK293T cytotoxicity, dose response, cytotoxicity control for miR-122 modulator project, cell-based, activator set, cherry-pick (AID 720690); format: functional;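 further: HEK293T human cells scored for general mammalian cytotoxicity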

Chain of Serine/threonine-protein phosphatase (Q9BPW0 whole entry): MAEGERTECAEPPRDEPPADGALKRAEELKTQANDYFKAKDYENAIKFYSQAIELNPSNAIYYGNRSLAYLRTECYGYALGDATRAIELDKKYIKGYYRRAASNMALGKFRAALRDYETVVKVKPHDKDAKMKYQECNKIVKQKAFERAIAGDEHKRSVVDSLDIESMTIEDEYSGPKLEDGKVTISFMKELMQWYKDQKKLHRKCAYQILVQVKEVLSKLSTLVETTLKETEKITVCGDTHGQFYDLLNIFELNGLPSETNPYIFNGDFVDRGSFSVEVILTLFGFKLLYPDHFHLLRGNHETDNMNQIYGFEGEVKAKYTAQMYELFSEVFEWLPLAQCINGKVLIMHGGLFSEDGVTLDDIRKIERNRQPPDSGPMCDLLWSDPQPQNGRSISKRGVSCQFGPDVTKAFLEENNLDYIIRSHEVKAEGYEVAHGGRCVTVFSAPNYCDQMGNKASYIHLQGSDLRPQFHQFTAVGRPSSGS
Chain of RNA-editing ligase 1, mitochondrial (P86926 whole entry): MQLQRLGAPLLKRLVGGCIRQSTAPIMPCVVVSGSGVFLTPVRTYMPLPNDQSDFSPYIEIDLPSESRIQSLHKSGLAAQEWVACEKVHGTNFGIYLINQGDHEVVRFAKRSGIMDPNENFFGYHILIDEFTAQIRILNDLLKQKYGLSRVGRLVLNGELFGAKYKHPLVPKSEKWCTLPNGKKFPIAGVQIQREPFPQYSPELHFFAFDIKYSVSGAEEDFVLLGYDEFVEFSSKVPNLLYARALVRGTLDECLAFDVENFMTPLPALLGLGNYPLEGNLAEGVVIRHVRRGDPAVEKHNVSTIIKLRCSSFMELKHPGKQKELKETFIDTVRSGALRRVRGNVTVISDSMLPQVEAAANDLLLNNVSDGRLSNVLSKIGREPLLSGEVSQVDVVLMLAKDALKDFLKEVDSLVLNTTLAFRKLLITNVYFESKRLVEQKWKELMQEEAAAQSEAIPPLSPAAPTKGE
Chain of Caspase-6 (P55212 24-179 limits assumed): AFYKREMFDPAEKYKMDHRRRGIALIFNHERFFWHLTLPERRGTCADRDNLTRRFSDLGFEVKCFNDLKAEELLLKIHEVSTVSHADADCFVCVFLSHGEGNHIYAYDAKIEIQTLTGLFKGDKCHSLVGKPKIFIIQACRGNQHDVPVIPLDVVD
Chain of Caspase-6 (P55212 194-293 limits assumed): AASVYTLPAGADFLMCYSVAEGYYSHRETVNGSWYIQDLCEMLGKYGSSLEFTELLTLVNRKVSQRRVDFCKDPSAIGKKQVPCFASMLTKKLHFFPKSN
Chain of Large T antigen (P03070 whole entry): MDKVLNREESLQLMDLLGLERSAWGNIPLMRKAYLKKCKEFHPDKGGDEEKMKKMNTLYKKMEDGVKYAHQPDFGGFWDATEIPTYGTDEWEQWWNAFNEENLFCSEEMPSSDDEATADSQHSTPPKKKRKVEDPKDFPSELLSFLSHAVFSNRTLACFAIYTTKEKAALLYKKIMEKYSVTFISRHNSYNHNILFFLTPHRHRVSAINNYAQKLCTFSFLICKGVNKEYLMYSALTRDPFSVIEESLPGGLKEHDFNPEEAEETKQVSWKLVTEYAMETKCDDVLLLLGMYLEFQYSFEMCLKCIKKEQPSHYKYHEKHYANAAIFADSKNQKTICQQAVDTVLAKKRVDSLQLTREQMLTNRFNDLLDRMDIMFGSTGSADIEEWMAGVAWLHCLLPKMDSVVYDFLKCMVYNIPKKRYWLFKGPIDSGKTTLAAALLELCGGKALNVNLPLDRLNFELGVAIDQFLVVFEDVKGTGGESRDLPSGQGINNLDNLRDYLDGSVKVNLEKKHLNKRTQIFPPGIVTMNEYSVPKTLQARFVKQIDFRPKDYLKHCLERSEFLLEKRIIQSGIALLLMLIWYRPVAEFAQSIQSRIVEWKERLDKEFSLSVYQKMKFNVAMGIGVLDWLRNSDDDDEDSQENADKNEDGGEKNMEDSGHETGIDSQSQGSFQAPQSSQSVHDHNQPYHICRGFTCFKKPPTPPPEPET
Chain of Nonstructural protein 1 (Q194T2 whole entry): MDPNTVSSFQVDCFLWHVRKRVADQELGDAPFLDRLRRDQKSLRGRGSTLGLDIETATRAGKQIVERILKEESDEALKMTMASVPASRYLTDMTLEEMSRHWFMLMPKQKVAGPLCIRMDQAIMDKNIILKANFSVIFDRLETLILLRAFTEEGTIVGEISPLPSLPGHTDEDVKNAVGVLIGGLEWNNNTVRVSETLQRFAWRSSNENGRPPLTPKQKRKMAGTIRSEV
Chain of Serine/threonine-protein phosphatase PP1-alpha catalytic subunit (P62136 whole entry): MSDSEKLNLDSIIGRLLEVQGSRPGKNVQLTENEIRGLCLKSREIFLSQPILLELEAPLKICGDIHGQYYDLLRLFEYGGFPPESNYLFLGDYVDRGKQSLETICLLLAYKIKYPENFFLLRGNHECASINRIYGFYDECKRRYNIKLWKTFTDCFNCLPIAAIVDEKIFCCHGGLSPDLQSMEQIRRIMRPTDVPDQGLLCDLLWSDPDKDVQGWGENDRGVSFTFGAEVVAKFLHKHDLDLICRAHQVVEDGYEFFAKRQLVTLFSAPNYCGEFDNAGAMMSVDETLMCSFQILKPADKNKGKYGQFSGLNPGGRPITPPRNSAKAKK
Chain of Photoreceptor-specific nuclear receptor (Q9Y5X4 whole entry, the tested form may be a part): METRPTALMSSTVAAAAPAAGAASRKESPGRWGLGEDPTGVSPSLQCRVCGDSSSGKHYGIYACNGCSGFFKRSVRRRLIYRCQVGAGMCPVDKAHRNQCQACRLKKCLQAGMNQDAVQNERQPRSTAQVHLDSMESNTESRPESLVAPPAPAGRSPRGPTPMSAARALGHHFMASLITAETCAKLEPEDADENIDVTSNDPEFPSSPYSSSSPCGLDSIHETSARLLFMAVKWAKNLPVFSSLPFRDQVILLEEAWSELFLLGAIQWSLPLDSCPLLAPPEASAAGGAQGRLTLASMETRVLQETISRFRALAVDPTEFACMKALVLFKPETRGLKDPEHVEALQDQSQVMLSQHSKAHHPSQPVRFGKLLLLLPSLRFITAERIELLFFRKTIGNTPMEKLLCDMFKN

Question: For Nc1nc(-c2ccccn2)nc(N)c1Cc1ccc(Cl)cc1Cl, which EC50 [1] is on record?
Answer: Its EC50 is 3.52 µM (active).

Question: And the EC50 (cells [2])?
Answer: The EC50 was 13.9 µM (active).

Question: And the IC50 [3]?
Answer: Its IC50 is 8.64 µM (active).

Question: And the EC50 [4]?
Answer: Its EC50 is 1.26 µM (active).

Question: What about the EC50 (cells [5]) of the same compound?
Answer: The EC50 was > 350 µM (not active).

Question: And the IC50 [6]?
Answer: The IC50 was 47.5 µM (not active).

Question: What about the EC50 [7] of the same compound?
Answer: Its EC50 is < 6 µM (inconclusive).

Question: What about the EC50 (Streptococcus) of the same compound?
Answer: Its EC50 is 13.5 µM (active).

Question: And the IC50 (Nonstructural protein 1)?
Answer: The IC50 was 5.11 µM (active).

Question: What about the AC50 (INS1) of the same compound?
Answer: The AC50 was 4.55 µM (active).

Question: What about the IC50 [8] of the same compound?
Answer: The IC50 was 4.53 µM (active).

Question: And the AC50 [9]?
Answer: Its AC50 is > 52 µM (inactive).

Question: Which IC50 (Large T antigen) does the source give for O=C(c1ccccc1)N1CCN(c2ccc(NCc3ccc4c(c3)OCO4)cc2)CC1 here?
Answer: The IC50 was > 100 µM (active).

Question: What about the AC50 [10] of the same compound?
Answer: Its AC50 is > 52 µM (inactive).

Question: What about the AC50 (cells [11]) of the same compound?
Answer: The AC50 was > 52 µM (inactive).

Question: What about the AC50 (cells [12]) of the same compound?
Answer: Its AC50 is 20.2 µM (active).

Question: Which AC50 (Caspase-6) does the source give for CCO/C(O)=C1/C(C)=Nc2ccccc2N=C1NS(=O)(=O)c1cc(C(=O)O)ccc1Cl here?
Answer: Its AC50 is 28.8 µM (active).

Question: With CCN(CC)CCNC(=O)c1sc2nc(-c3ccccc3)cn2c1C as the compound, how does the AC50 (cells [13]) read?
Answer: Its AC50 is 57 µM (active).

Question: With COc1ccc(C2CC(c3ccccc3)n3nc(NC(=O)c4cccs4)nc3N2)cc1 (stereo not given) as the compound, how does the IC50 [14] read?
Answer: The IC50 was 6.96 µM (active).

Question: And the IC50 (Protein Tat)?
Answer: The IC50 was > 100 µM (active).

Question: What about the IC50 [15] of the same compound?
Answer: The IC50 was > 100 µM (active).

Question: And the CC50 [16]?
Answer: Its CC50 is > 40 µM (active).

Question: For Cc1c(P(=S)(c2ccccc2)c2ccccc2)n2ccccc2[n+]1C/C=C/c1ccccc1, which IC50 [17] is on record?
Answer: The IC50 was > 96.6 µM (inactive).

Question: With O=C(N/C(=C\c1cccnc1)c1nc2ccccc2[nH]1)c1cccc(Br)c1 as the compound, how does the IC50 [18] read?
Answer: The IC50 was 8.16 µM (active).

Question: What about the IC50 [19] of the same compound?
Answer: The IC50 was 83.3 µM (inactive).

Question: And the IC50 [20]?
Answer: The IC50 was 4.56 µM (active).

Question: And the IC50 [21]?
Answer: The IC50 was > 83.3 µM (inactive).

Question: Which AC50 [22] does the source give for CN1C(=O)c2cc(NC(=O)c3ccc(C(F)(F)F)cc3)ccc2OC[C@H]2O[C@H](CC(=O)NCc3ccc4c(c3)OCO4)CC[C@H]21 here?
Answer: Its AC50 is 12.3 µM (active).

Question: What about the AC50 [23] of the same compound?
Answer: The AC50 was 0.571 µM (active).

Question: What about the AC50 [24] of the same compound?
Answer: The AC50 was 28.4 µM (active).
